Source: patent US20260284153A1, “COMPOSITION COMPRISING GV1001 FOR PREVENTING OR TREATING PERIODONTAL DISEASES AND DISORDERS CAUSED BY PERIODONTAL DISEASES” (GEMVAX & KAEL CO., LTD., priority 2023, published 2026)

Experiments:
[1] = system: Porphyromonas gingivalis-induced periodontitis; assay: Periodontitis efficacy in Pg-treated, ligature-placed, high-fat-diet ApoE-/- mouse model; format: in vivo, ApoE−/− mice (C57BL/6 background)
Excerpt: (§1) An animal model was created using ApoE^−/^− mice (C57BL/6 background, male, 4 weeks old).
(§2) Animal models were fed with a high-fat diet (HFD), and a 6-0 silk ligature was placed around the maxillary second molar to create a gingival pocket using the ligature placement method for 1 week, followed by treatment with Porphyromonas gingivalis (Pg) or PBS for 5 weeks.
(§3) The depth of the periodontal pocket, the expression level of inflammatory cytokines in the gingival tissue (mRNA level, IF staining), the aggregation of Porphyromonas gingivalis, Porphyromonas gingivalis LPS, Kgp and RgpB in the gingival tissue, the amount of alveolar bone loss, and the number of osteoclasts in the alveolar bone were determined. Further, the effect on osteoclastogenesis was confirmed in an in vitro test.

Raw264.7 = assay: In vitro osteoclastogenesis of macrophage cell line induced into osteoclasts; format: cell-based; conditions: Raw264.7 induced into osteoclasts; FIGS. 6A to 6E
Method: as §3
To confirm the efficacy of GV1001 on alveolar bone loss, μCT was used to determine alveolar bone loss in a periodontitis-induced animal model (FIGS. 4A to 4C), and the number of osteoclasts in the alveolar bone was determined by TRAP staining (FIGS. 5A and 5B).

[2] = system: Alzheimer's disease induced by periodontitis; assay: Periodontitis-related Alzheimer's disease efficacy in Pg-treated ApoE-/- mouse model; format: in vivo, ApoE−/− mice (C57BL/6 background); conditions: GV1001 2 mg/kg i.p., vs control
Excerpt: as §1, §2
The expression levels of inflammatory cytokines, the aggregation of Porphyromonas gingivalis, Porphyromonas gingivalis LPS and Kgp, RgpB, and the accumulation of Aβ42 and p-Tau in brain tissue were confirmed.

[3] = system: gingipain (RgpA, RgpB, Kgp); assay: In vitro expression of gingipain in Porphyromonas gingivalis; format: cell-based; conditions: FIG. 23
Method: To understand the fundamental mechanism of Porphyromonas gingivalis colony formation, and the reduction of Porphyromonas gingivalis LPS and gingipain by GV1001 in gingival tissues, arterial walls and brain, the effect of GV1001 on the expression of gingipain, which is an enzyme important for the growth and tissue invasion of Porphyromonas gingivalis, was investigated. […] Very low doses (5-30 μM) of GV1001 reduced the expression of RgpA and RgpB by approximately 5 times and the expression of Kgp by approximately 3 times, compared with the control group (Porphyromonas gingivalis 16S IRNA) (FIG. 23).

[4] = system: human umbilical vein endothelial cells (HUVECs); assay: EndMT of HUVECs stimulated with TNF-α and Porphyromonas gingivalis LPS; format: cell-based; conditions: FIGS. 13A, 13B
Method: (§4) The expression levels of inflammatory cytokines in serum and arterial tissue, the aggregation of Porphyromonas gingivalis, Porphyromonas gingivalis LPS, Kgp and RgpB in arterial tissue, changes in cholesterol levels in serum, and lipid deposition (atherosclerosis) in the arterial wall were determined. In vitro, inhibition of EndMT and inhibition of macrophage uptake of dil-ox-LDL were evaluated. Further, the CD47 expression levels were determined in the aortic root in vivo and in vitro.
It is known that when endothelial cells (ECs) change their phenotype into mesenchymal cells (MCs) through endothelial-to-mesenchymal transition (EndMT), it induces various vascular diseases (atherosclerosis, pulmonary hypertension, fibrosis, etc.). TNF-α is known as a cytokine involved in this process. In the present invention, it was confirmed that when human umbilical vein endothelial cells (HUVECs) were stimulated with TNF-α and Porphyromonas gingivalis LPS, ECs (marker; CD31) were decreased while MCs (marker; FSP-1) were increased due to EndMT (FIGS. 13A and 13B). • Control group: EndMT of HUVECs was confirmed to progress by TNF-α and Porphyromonas gingivalis LPS. • GV1001 administration group: The EndMT progression of HUVECs was confirmed to be inhibited by GV1001. […]

[5] = system: atherosclerosis induced by periodontitis; assay: Periodontitis-related atherosclerosis efficacy in Pg-treated ApoE-/- mouse model; format: in vivo, ApoE−/− mice (C57BL/6 background); conditions: GV1001 2 mg/kg i.p., vs control
Excerpt: as §1, §2, §4

[6] = system: CD47 in human coronary artery smooth muscle cells (HCASMC); assay: CD47 expression in HCASMC treated with TNF-α and Porphyromonas gingivalis LPS; format: cell-based; conditions: TNF-α and Porphyromonas gingivalis LPS treatment; FIGS. 16A to 16F
Method: as §4
CD47, a representative anti-phagocytic factor, is known to interfere with the removal of cancer cells by macrophages, and overexpression of CD47 is known to cause atherosclerosis. In the present invention, the expression level of CD47 in the aortic root was confirmed in an animal model of periodontitis induction (FIGS. 15A and 15B). […] 2.3 Effect of GV1001 in Alzheimer's Disease Associated with Periodontitis

[7] = system: macrophages differentiated from THP-1 (human monocyte cell line) cells; assay: ox-LDL uptake by macrophages differentiated from THP-1 cells; format: cell-based; conditions: induced by TNF-α and Porphyromonas gingivalis LPS; THP-1-derived macrophages; FIGS. 14A, 14B
Method: as §4
It is known that the formation of foam cells by macrophages in response to LDL and TNF-α is an important process in atherosclerosis. […] As a result, this means that the inhibition of atherogenesis by GV1001 is partly due to its inhibitory effect on foam cell formation.

[8] = GV1001 2 mg/kg i.p., vs control, FIGS. 3A, 3B
[9] = 5-30 μM GV1001, compared with the control group (Porphyromonas gingivalis 16S IRNA)

## GV1001: peptide consisting of 16 amino acids, SEQ ID NO: 1, derived from human telomerase reverse transcriptase (hTERT) (EARPALLTSRLRFIPK; UniProt O14746 611-626, looked up, fragment)
[1]; GV1001 2 mg/kg i.p. 3 times/week for 10 weeks, vs periodontitis control, FIG. 1
  inflammatory cytokine (IL-1β, TNF-α, IL-6) mRNA levels in periodontal tissue: significantly reduced
[1]; GV1001 2 mg/kg i.p., all cytokines, vs control, FIGS. 7A, 7B
  inflammatory cytokines (IL-1β, TNF-α, IL-6, GM-CSF, VEGF, IL-17, KC) in serum: significantly suppressed
[1]; [8]
  Porphyromonas gingivalis LPS in gingival tissue: significantly reduced
  gingipain (Kgp, RgpB) in gingival tissue: significantly reduced
  number of Porphyromonas gingivalis colonies in gingival tissue: significantly reduced
[1]; GV1001 2 mg/kg i.p., vs control, FIGS. 4A to 4C
  alveolar bone loss (μCT): significantly reduced
[1]; GV1001 2 mg/kg i.p., vs control, FIGS. 5A, 5B
  osteoclastogenesis in alveolar bone (number of osteoclasts, TRAP staining): significantly inhibited
[1]; GV1001 2 mg/kg i.p., vs periodontitis control, FIGS. 2A, 2B
  inflammatory cytokine expression in periodontal tissue by fluorescent staining: decrease in cytokine expression was confirmed
Raw264.7
  osteoclastogenesis in vitro: significantly inhibited
[2]; FIG. 17
  inflammatory cytokine (IL-1β, TNF-α, IL-6) mRNA levels in brain tissue: significantly reduced
[2]; FIGS. 18A to 19B
  inflammatory cytokine expression in brain tissue by fluorescent staining: decrease in cytokine expression was confirmed
[2]; FIGS. 20A to 21B
  Porphyromonas gingivalis LPS in the cerebral cortex and hippocampus: significantly reduced
  gingipain (Kgp, RgpB) in the cerebral cortex and hippocampus: significantly reduced
  number of Porphyromonas gingivalis colonies in the cerebral cortex and hippocampus: significantly reduced
[2]; FIGS. 22A, 22B
  accumulation of Aβ42 in the cerebral cortex and hippocampus: significantly reduced
  accumulation of p-Tau in the cerebral cortex and hippocampus: significantly reduced
[3]; [9]
  reduction of expression of Kgp: approximately 3 times
  reduction of expression of RgpA: approximately 5 times
  reduction of expression of RgpB: approximately 5 times
[3]
  expression of gingipain in vitro: markedly inhibited
[4]
  EndMT progression of HUVECs (CD31, FSP-1 markers): inhibited
[5]; FIG. 8
  inflammatory cytokine (IL-1β, TNF-α, IL-6) mRNA levels in arterial tissue: significantly reduced
[5]; FIGS. 9A, 9B
  inflammatory cytokine expression in arterial tissue by fluorescent staining: decrease in cytokine expression was confirmed
[5]; FIGS. 10A, 10B
  Porphyromonas gingivalis LPS in the arterial wall: significantly reduced
  gingipain (Kgp, RgpB) in the arterial wall: significantly reduced
  number of Porphyromonas gingivalis colonies in the arterial wall: significantly reduced
[5]; FIGS. 11A, 11B
  level of low-density lipoprotein (LDL) in serum: significantly reduced
  level of total cholesterol (TC) in serum: significantly reduced
[5]; FIGS. 15A, 15B
  expression level of CD47 in the aortic root: significantly reduced
[5]; Sudan IV and Oil Red O staining, FIGS. 12A, 12B
  intravascular lipid deposition, wall of the aorta-iliac bifurcation: significantly suppressed
[6]
  expression level of CD47 in HCASMC: significantly reduced
[7]
  ox-LDL uptake: significantly inhibited
